Measured values: patent publication US20050130134A1, “Means and methods for monitoring non-nucleoside reverse transcriptase inhibitor antiretroviral therapy and guiding therapeutic decisions in the treatment HIV-AIDS” (ViroLogic, Inc., priority 2000, published 2005)
Entries after “also recorded” stand apart in the source; their conditions may differ.

How the values were obtained:
[1] = system: Tyr181Cys (Y181C) mutation of HIV RT; settings: cited from earlier work
[2] = system: RTV-1058 clone 5 (RT L100I, K103N); test: Phenotypic susceptibility assay, RTV-1058 clone 5; format: cell-based, HIV-1
Experimental: (§1) Transfections were performed using a calcium-phosphate precipitation procedure. […] Cell lysates were assayed for luciferase activity (FIG. 3). […] The drug inhibition curves are shown in (FIG. 3).

[3] = system: RTV-1057 patient virus (RT A98G, Y181C); test: Phenotypic susceptibility assay, RTV-1057 (patient 98-1057); format: cell-based, HIV-1
Experimental: as §1

[4] = system: RTV-268 patient virus (RT P236L with M41L, D67N, M184V, L210W, T215Y, K219Q); test: Phenotypic susceptibility assay, RTV-268 (patient 97-268); format: cell-based, HIV-1; settings: RTV-268 patient virus compared to reference virus
Experimental: (§2) Resistance tests were carried out with resistance test vectors using two host cell types. Resistance test vector viral particles were produced by a first host cell (the resistance test vector host cell) that was prepared by transfecting a packaging host cell with the resistance test vector and the packaging expression vector. The resistance test vector viral particles were then used to infect a second host cell (the target host cell) in which the expression of the indicator gene is measured.
The resistance test vectors containing a functional luciferase gene cassette were constructed and host cells were transfected with the resistance test vector DNA. The resistant test vectors contained patient-derived reverse transcriptase and protease sequences that were either susceptible or resistant to the antiretroviral agents, such as nucleoside reverse transcriptase inhibitors, non-nucleoside reverse transcriptase inhibitors and protease inhibitors. The resistance test vector viral particles produced by transfecting the resistance test vector DNA into host cells, either in the presence or absence of protease inhibitors, were used to infect target host cells grown either in the absence of NRTI or NNRTI or in the presence of increasing concentrations of the drug. The amount of luciferase activity produced in infected target host cells in the presence of drug was compared to the amount of luciferase produced in infected target host cells in the absence of drug. Drug resistance was measured as the amount of drug required to inhibit by 50% the luciferase activity detected in the absence of drug (inhibitory concentration 50%, IC50). The IC50 values were determined by plotting percent drug inhibition vs. log10 drug concentration.
Host cells were seeded in 10-cm-diameter dishes and were transfected several days after plating with resistance test vector plasmid DNA and the envelope expression vector. Transfections were performed using a calcium-phosphate precipitation procedure. The cell culture media containing the DNA precipitate was replaced with fresh medium, from one to 24 hours, after transfection. Cell culture media containing resistance test vector viral particles was harvested one to four days after transfection and was passed through a […] filter before being stored at −80° C. HIV capsid protein (p24) levels in the harvested cell culture media were determined by an EIA method as described by the manufacturer (SIAC; Frederick, Md.). Before infection, target cells (293 and 293/T) were plated in cell culture media. Control infections were performed using cell culture media from mock transfections (no DNA) or transfections containing the resistance test vector plasmid DNA without the envelope expression plasmid. One to three or more days after infection the media was removed and cell lysis buffer (Promega) was added to each well. […] The inhibitory effect of the drug was determined using the following equation: % luciferase inhibition=1-(RLUluc[drug]÷RLUluc)×100 where RLUluc [drug] is the relative light unit of luciferase activity in infected cells in the presence of drug and RLUluc is the Relative Light Unit of luciferase activity in infected cells in the absence of drug. IC50 values were obtained from the sigmoidal curves that were generated from the data by plotting the percent inhibition of luciferase activity vs. the log10 drug concentration.
A resistance test vector was constructed as described in Example 1 from a patient sample designated 97-268. […] Isolation of viral RNA and RT/PCR was used to generate a patient derived segment that comprised viral sequences coding for all of PR and amino acids 1-313 of RT. The patient derived segment was inserted into a indicator gene viral vector to generate a resistance test vector designated RTV-268.

[5] = system: RTV-1058 clone 10 (RT L100I, K103N, Y188L); test: Phenotypic susceptibility assay, RTV-1058 clone 10; format: cell-based, HIV-1
Experimental: as §1

[6] = system: RTV-757 patient virus (RT V106A, V108I, V189L); test: Phenotypic susceptibility assay, RTV-757 (patient 98-757); format: cell-based, HIV-1; settings: RTV-757 patient virus (same patient as RTV-1033, later time point)
Experimental: as §1

[7] = system: RTV-964 patient virus (RT Y181I); test: Phenotypic susceptibility assay, RTV-964 (patient 98-964); format: cell-based, HIV-1
Experimental: as §1

[8] = system: HIV-1 reverse transcriptase L100I + K103N (L100I-K103N-RTV); test: Phenotypic susceptibility assay, site directed mutant L100I-K103N-RTV; format: cell-based; settings: >1 loss of susceptibility
Experimental: as §2
(§3) The resistance test vectors containing a functional luciferase gene cassette were constructed and host cells were transfected with the resistance test vector DNA. The resistant test vectors contained patient-derived reverse transcriptase and protease sequences that were either susceptible or resistant to the antiretroviral agents, such as nucleoside reverse transcriptase inhibitors, non-nucleoside reverse transcriptase inhibitors and protease inhibitors. […] The IC50 values were determined by plotting percent drug inhibition vs. log10 drug concentration.
(§4) Host cells were seeded in 10-cm-diameter dishes and were transfected several days after plating with resistance test vector plasmid DNA and the envelope expression vector. […] HIV capsid protein (p24) levels in the harvested cell culture media were determined by an EIA method as described by the manufacturer (SIAC; Frederick, Md.). […]

[9] = system: HIV-1 reverse transcriptase L100I + K103N + Y188L (L100I-K103N-Y188L-RTV); test: Phenotypic susceptibility assay, site directed mutant L100I-K103N-Y188L-RTV; format: cell-based; settings: >1 loss of susceptibility
Experimental: as §2, §3, §4

[10] = system: HIV-1 reverse transcriptase P225H plus K103N, Y181C or both; test: Phenotypic susceptibility assay, P225H with K103N, Y181C or K103N+Y181C; format: cell-based; settings: P225H added to K103N, Y181C or K103N+Y181C versus corresponding RTV lacking P225H
Experimental: as §1
Resistance test vectors were constructed containing the P225H mutation alone and in combination with other known drug resistance mutations (K103N, Y181C) known to modulate the HIV susceptibility to NNRTIs. […] (Sakar G and Sommar S S (1994) Biotechniques 8(4), 404-407). […] The P225H mutation was also introduced into a RTV containing additional mutations at K103N, Y181C or both (K103N+Y181C).

[11] = system: HIV-1 reverse transcriptase K103N + Y188L (K103N-Y188L-RTV); test: Phenotypic susceptibility assay, site directed mutant K103N-Y188L-RTV; format: cell-based; settings: >1 loss of susceptibility
Experimental: as §2, §3, §4

[12] = system: HIV-1 reverse transcriptase Y188H (Y188H-RTV); settings: >1 loss of susceptibility
Experimental: as §2, §3, §4

Cc1ccnc2c1NC(=O)c1cccnc1N2C1CC1 [nevirapine]
reduction in sensitivity [1]: 100 fold | loss of susceptibility [2]: 120 fold | decrease in susceptibility [3]: 610 fold | change in susceptibility / resistance [4]: no change; also recorded: the same as wild type | loss of susceptibility [5]: greater than 800 fold | decrease in susceptibility [6]: greater than 800 fold | decrease in susceptibility [7]: 750 fold | fold change in susceptibility compared to wild type control RTV [8]: 70 fold | fold change in susceptibility compared to wild type control RTV [9]: greater than 800 fold | change in susceptibility [10]: did not significantly change; also recorded: little or no change; also recorded: does not decrease the amount of nevirapine resistance | fold change in susceptibility compared to wild type control RTV [11]: greater than 800 fold | fold change in susceptibility compared to wild type control RTV [12]: 3.5 fold

CC(C)Nc1cccnc1N1CCN(C(=O)c2cc3cc(NS(C)(=O)=O)ccc3[nH]2)CC1 [delavirdine]
loss of susceptibility [2]: 250 fold | decrease in susceptibility [3]: 35 fold | loss of susceptibility [5]: greater than 250 fold | decrease in susceptibility [6]: 10 fold | change in susceptibility [10]: more susceptible to inhibition; also recorded: increase; also recorded: decreases the amount of delavirdine resistance
